What was measured:
TLR 2/1 = biological target: T1, TLR 2/1 (Mus musculus, UniProt Q9EPQ1+Q9QUN7); test: Pam3Cys-induced TNFα release by RAW264.7 cells (TLR 2/1 antagonism); type: cell-based; details: Pam3Cys, 4 hours
T1 construct: endogenous in cells; host or cells: RAW264.7 (ATCC)
Description: (§1) The mouse macrophage cell line, RAW264.7, was obtained from ATCC and maintained in DMEM, supplemented with 10% bovine growth serum and 1× penicillin streptomycin. Cells were maintained at 37° C. with 5% carbon dioxide: 95% air atmosphere within the incubator. Experiments were completed in a 96-well plate where cells were seated at a density of 1×10^5 cells per well, 24 prior to stimulation with TLR agonists and antagonists. Lipids were dried under a stream of nitrogen, hydrated with phosphate-buffered saline (PBS) at 37° C. for one hour, followed by water bath sonication to create liposomes. Each condition for cell stimulation and antagonism was prepared in DMEM in a separate tube and consisted of: control, TLR agonist, TLR agonist+lipid, and lipid alone. 100 μL aliquots of medium+agonists+antagonists were added to each well and incubated at 37° C. for 4 hours. Subsequently, the media were collected, diluted and an enzyme-linked immunosorbent assay (ELISA) was performed to quantify TNFα release by cells.
The ability of xylitol lipid analogs to suppress the activation of TLR 2 heterodimers was assessed. Pam3Cys was used to selectively stimulate TLR 2/1 signaling in RAW264.7 cells and MALP-2 was used as a TLR 2/6 selective agonist also in RAW264.7 cells. RAW264.7 cells were stimulated with Pam3Cys in the absence, or presence of PX lipids for 4 hours. Following incubation, media were collected, diluted and analyzed for TNFα release as a consequence of TLR activation. Results for analog activity against TLR 2/1 activation was assessed at two concentrations of phospholipid and are summarized in FIGS. 4A and 4B.
Initially, activity of xylitol lipid analogs was assessed at 100 μg/mL and it was unclear whether there was a real antagonist effect especially when compared to POPG. Experiments were repeated with a 200 μg/mL concentration of lipid to determine the ability of PX lipids to suppress TLR 2/1 activation in the presence of Pam3Cys. […] DPPX could have an effect on TLR 2/1 signaling at high concentrations.

TLR 7 = biological target: T2, TLR 7 (Mus musculus, UniProt P58681); test: polyU-induced TNFα secretion by RAW264.7 cells (TLR 7 antagonism); type: cell-based; details: 20 μg/mL polyU, 20 μg/mL phospholipid, 4 hours
T2 construct: endogenous in cells; host or cells: RAW264.7 (ATCC)
T2 sequence (P58681 27-1050): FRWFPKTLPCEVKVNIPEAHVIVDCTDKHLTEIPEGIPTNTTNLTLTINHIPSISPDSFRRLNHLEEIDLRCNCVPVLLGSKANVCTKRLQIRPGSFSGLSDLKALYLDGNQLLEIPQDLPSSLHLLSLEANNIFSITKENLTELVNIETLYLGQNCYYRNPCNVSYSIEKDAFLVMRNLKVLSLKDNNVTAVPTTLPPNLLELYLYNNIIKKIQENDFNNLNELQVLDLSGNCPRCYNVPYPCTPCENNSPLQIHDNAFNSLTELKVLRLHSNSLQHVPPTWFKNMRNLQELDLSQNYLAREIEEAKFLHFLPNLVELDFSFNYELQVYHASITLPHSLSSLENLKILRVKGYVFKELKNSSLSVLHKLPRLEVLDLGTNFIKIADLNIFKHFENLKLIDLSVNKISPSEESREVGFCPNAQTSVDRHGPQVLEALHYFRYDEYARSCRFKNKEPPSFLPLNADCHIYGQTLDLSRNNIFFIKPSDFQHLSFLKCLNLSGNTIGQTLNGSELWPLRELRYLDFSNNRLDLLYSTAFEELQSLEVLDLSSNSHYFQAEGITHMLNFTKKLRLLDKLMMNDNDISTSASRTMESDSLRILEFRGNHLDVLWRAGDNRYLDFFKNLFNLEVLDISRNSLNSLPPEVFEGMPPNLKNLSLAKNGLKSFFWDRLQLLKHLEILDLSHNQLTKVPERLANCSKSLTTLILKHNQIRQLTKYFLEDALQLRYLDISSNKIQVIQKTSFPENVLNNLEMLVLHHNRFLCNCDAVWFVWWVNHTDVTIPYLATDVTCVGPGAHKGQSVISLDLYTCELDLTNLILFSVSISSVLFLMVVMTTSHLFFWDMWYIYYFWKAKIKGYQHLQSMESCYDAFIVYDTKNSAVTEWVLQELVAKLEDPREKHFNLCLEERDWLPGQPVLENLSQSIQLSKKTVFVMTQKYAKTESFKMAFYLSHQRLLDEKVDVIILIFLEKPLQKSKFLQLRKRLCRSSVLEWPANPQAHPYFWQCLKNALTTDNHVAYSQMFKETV
Description: as §1
TLR 7 is an intracellular receptor of the endosomal compartment. TLR 7 was the first innate immune receptor reported druggable with small molecules, however no breakthrough treatments have been discovered with TLR 7 agonists/antagonists yet (T. Y.-H. Wu, “Strategies for Designing Synthetic Immune Agonists,” Immunology, 2016). TLR 7 detects single-stranded RNA (ssRNA) within endosomal compartments. Xylitol lipids were assessed for antagonism of TLR 7 activation in the presence of the synthetic ssRNA analog, polyuridylic acid (polyU). The macrophage cell line, RAW264.7, was used to assess antagonist activity of PX analogs in a TLR 7-dependent manner. Cells were stimulated with 20 μg/mL polyU for 4 hours in the absence or presence of 20 μg/mL phospholipid. After a 4-hour stimulation media were collected and TNFα secretion was quantified by ELISA. […] Saturated, ester-linked phospholipids appear to be ineffective at antagonizing TLR 7 activation where as their unsaturated ester-linked and saturated ether-linked counterparts were effective.

T1 sequence (Q9QUN7 25-784): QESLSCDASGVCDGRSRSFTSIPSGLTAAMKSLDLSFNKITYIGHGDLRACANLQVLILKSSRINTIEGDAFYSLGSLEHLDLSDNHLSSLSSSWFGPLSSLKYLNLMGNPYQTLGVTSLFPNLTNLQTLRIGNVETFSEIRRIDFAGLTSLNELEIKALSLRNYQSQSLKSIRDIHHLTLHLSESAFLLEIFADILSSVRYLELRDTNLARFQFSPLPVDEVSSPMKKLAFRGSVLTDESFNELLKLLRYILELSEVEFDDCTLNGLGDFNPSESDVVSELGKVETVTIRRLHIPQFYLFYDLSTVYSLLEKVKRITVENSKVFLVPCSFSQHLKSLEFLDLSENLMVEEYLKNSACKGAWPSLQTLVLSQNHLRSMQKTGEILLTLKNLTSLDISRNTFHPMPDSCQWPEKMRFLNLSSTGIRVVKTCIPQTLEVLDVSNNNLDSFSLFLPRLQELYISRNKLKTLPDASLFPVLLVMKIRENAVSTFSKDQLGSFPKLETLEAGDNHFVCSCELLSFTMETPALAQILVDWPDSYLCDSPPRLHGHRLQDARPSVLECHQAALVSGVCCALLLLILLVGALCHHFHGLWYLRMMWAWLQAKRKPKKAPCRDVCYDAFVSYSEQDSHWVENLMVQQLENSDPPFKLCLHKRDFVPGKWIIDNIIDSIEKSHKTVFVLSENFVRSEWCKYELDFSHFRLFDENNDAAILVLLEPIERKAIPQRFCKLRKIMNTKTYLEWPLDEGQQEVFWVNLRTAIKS
T1 sequence (Q9EPQ1 25-795 limits assumed): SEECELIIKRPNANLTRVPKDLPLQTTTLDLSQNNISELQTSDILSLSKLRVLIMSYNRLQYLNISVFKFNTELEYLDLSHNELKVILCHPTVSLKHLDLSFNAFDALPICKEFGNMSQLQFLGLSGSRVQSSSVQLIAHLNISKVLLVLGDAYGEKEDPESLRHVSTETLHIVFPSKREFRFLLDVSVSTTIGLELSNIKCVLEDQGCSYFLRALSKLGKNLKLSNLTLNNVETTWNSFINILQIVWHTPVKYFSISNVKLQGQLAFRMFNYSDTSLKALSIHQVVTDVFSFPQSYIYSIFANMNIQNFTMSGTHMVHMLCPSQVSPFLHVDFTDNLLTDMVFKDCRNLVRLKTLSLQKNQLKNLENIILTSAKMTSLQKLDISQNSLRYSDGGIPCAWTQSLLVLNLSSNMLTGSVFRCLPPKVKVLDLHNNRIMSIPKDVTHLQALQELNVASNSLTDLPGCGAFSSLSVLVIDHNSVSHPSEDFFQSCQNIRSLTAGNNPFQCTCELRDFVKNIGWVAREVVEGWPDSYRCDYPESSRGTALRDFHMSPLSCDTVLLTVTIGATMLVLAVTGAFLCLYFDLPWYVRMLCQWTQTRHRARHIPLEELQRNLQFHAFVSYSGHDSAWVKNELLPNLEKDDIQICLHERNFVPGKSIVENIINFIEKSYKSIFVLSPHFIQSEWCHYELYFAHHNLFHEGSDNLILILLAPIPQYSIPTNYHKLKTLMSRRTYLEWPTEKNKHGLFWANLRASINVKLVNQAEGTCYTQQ

CCCCCCCC/C=C\CCCCCCCC(=O)O[C@H](COC(=O)CCCCCCCCCCCCCCC)COP(=O)(O)OCC(O)CO (stereo partly drawn) [POPG, palmitoyl-oleoyl-phosphatidylglycerol, reference compound]
markedly inhibited: suppression of TLR 2/1 activation (TNFα release) (TLR 2/1; 100 μg/mL lipid) | suppression of TLR 2/1 activation (TNFα release) (TLR 2/1; 200 μg/mL lipid) | antagonism of TLR 7 activation (TNFα release) (TLR 7)

Reference: patent US12472193B2, “Methods and compositions for treating and preventing respiratory related diseases and conditions with xylitol-headgroup lipid analogs” (National Jewish Health, priority 2017, dated 2025)
